According to patent USRE32393E, “Composition for enhancing the administration of pharmacologically active agents” (KabiVitrum AB, priority 1967, dated 1987):
Where a name gives a salt, the structure may show the parent alone.

Tests used:
[1] = test system: hind leg of cats anaesthetized with chloralose; details: intraarterial, about 1-2 mg/kg
[2] = test system: male albino mice of the NMRI strain; assay: intravenous toxicity (LD50, survival time) of mecamylamine preparations in mice; format: in vivo; details: ± S.E.
Source text: (§1) Mecamylamine (3-methylaminoisocamphane hydrochloride) is a ganglion-blocking secondary amine, and as a base, it is an oily liquid which is soluble in lipids. Its toxicity (LD50) after intravenous administration has been estimated in male albino mice of the NMRI strain in accordance with the method of the Nordic Pharmacopoeia. The following preparations were used:
(§2) Mecamylamine hydrochloride, 1% dissolved in saline
(§3) Mecamylamine base, dissolved in soybean oil and emulsified in the conventional way. Final concentration 1%.
(§4) Mecamylamine base, directly emulsified in 5.5% glucose solution with the aid of Pluronic F-68 (a registered trade mark for a nonionic emulsifier consisting of a block polymer of ethylene oxide and propylene oxide, from Wyandotte Chemical Corporation, described on page 392 of the Extra Pharmacopoeia, Martindale, 26th Edition) and an ultrasonic apparatus (20.000 Hz). Final concentration 1%.
(§5) The injections were given in the dorsal tail vein at a speed of 0.1 ml per 5 seconds.

[3] = as above; format: in vivo, male albino mice of the NMRI strain; details: mouse, in vivo, 1% preparations, fiducial limits at P = 0.05
Source text: as §1, §2, §3, §4, §5

[4] = pH value of phenyramidol preparations; format: physicochemical; details: aqueous solution
[5] = test system: mouse; assay: sleeping time in mouse (loss of righting reflex); format: in vivo; details: single dose
Source text: The sleeping time after a single dose injection of the emulsion was shorter than the sleeping time after injection of an aqueous solution of sodium hexobarbital:
In accordance with common practice, the sleeping time has been set as the duration of the loss of the righting reflex.

[6] = test system: chloralose-anaesthetized cat; assay: effect on blood pressure in chloralose-anaesthetized cat; format: in vivo; details: intravenous
Description: The effects of the emulsion on the blood pressure when given intravenously in a dose of 5-10 mg/kg was registered on a chloralose-anaesthetized cat.

With `CC1CC(OC(=O)C(O)c2ccccc2)CC(C)(C)C1` (stereo not drawn) [Cyclandelate, 3,5,5-trimethylcyclohexyl mandelate] the onset of vasodilatation [1] was “within a few seconds” and the vasodilatation ([1]; especially in noradrenaline induced vasoconstriction) was “marked vasodilatation”.

In the case of `CNC1(C)C2CCC(C2)C1(C)C` (stereo not drawn) [Mecamylamine HCl, 3-methylaminoisocamphane hydrochloride], the “Survival time (time from the injections to death)” value [2] is reported as 55 ± 5.1 s and the LD50 [3] is reported as 16.3 mg/kg.

With `OC(CNc1ccccn1)c1ccccc1` (stereo not drawn) [phenyramidol hydrochloride] the “pH value compared with the emulsion” value [4] was “lower pH value”.

In the case of `CN1C(=O)NC(=O)C(C)(C2=CCCCC2)C1=O` (stereo not drawn) [sodium hexobarbital], the Sleeping time ([5]; 72 mg/kg) is reported as 172 s, the Sleeping time ([5]; 86 mg/kg) is reported as 905 s and the “duration of blood pressure depression, emulsion and sodium hexobarbital solution” value [6] is reported as “about the same duration”. The “depression of blood pressure” value ([6]; 5-10 mg/kg) was “about 6 mm Hg”.
